Source: patent US8293782B2, “Compound, probe containing the novel compound, and fluorescence-imaging contrast agent containing the novel compound or the probe” (Canon Kabushiki Kaisha, priority 2009, dated 2012)

Assay: Fading evaluation in fetal bovine serum under interior light (680 LUX)
Type: physicochemical
Details: 5 μM in FBS, absorbance at maximum absorption wavelength after 24 hours
Description: The ordinate of FIG. 10 indicates log(At/A0) where A0 and At respectively represent absorbance at the maximum absorption wavelength after the lapse of 0 and t hours from the irradiation of the interior light. The fading rate in Table 1 is expressed by (A0-A24)/A0, that is, variation in absorbance at the maximum absorption wavelength after the lapse of 24 hours.

Q: With Alexa Fluor (trademark) 750 [Reagent 1] as the substance, how does the “Fading rate (A0-A24)/A0” value read?
A: 4.5%
